Assay results taken from patent US20180099961A1, “PROTEIN KINASE INHIBITORS” (Princeton Drug Discovery Inc, priority 2016, published 2018).
Read-outs that look alike come from different tables or passages of the source.

Columns and labels:
[1] = system: RAF1; assay: Off-chip Mobility Shift Assay; type: biochemical
[2] = Metabolic stability in human liver microsomes; type: in vitro ADME; details: for microsomal CLint at 1 μM / half-life at 1 μM: human, liver microsomes, human liver microsomes 0.5 mg/mL, NADPH and UDPGA, 37° C.; for microsomal CLint at 1 μM: read-out: CLint (intrinsic clearance); for half-life at 1 μM: read-out: In vitro t1/2; for metabolic stability as compared to dasatinib: human liver microsomes
Experimental: FIG. 1. Metabolic stability of compounds in human liver microsomal incubations. […] Concentrations at specified times were determined by LC-MS/MS.
The incubation reactions at various time points were quenched by adding 2× volumes of acetonitrile containing 100 nM reserpine. The quenched incubation samples were centrifuged at 4000 RPM for 10 min, and the supernatants injected for LC/MS/MS analysis. LC/MS/MS analysis was carried out on a AB Sciex 4000 Q Trap LC/MS/MS system coupled with Shimadzu Prominence UFLCXR 20 series (including a CBM-20A controller, two LC-20ADXR solvent delivery units, SIL-20AC HT autosampler, CTO-20A column oven, and a SPD-20A UV detector).

[3] = molecular target: T1, BTK (Homo sapiens, UniProt Q06187); assay: Off-chip Mobility Shift Assay; type: biochemical; details: read-out: IC50, recombinant BTK activity
T1 construct: purchased Carna Biosciences
T1 sequence (Q06187 whole entry): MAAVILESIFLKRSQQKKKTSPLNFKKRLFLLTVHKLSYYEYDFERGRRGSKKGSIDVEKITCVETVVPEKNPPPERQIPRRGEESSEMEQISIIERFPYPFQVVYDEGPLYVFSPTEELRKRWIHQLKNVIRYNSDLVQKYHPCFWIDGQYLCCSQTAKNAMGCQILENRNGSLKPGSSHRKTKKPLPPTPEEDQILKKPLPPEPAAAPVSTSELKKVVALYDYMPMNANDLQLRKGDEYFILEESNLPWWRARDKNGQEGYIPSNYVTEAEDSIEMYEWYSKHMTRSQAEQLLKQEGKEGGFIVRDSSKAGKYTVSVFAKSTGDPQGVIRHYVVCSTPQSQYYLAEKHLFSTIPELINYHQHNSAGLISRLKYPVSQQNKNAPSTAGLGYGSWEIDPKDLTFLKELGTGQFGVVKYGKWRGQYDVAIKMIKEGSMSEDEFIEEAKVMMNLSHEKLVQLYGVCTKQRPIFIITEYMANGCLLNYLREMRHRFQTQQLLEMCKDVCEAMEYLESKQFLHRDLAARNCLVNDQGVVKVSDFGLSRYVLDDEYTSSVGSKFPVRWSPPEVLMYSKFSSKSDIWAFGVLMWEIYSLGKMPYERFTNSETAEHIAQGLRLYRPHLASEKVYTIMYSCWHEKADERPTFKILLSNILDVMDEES

[4] = Pharmacokinetics in Sprague-Dawley rats, 2-in-1 dosing; type: in vivo; details: for clearance / Vd / AUC(0-inf) / AUC(0-t) / half-life / bioavailability / Cmax / Tmax: Sprague-Dawley, rat; for clearance / Vd / AUC(0-inf) / AUC(0-t) / half-life / bioavailability: plasma; for clearance: read-out: CL (plasma clearance) (converted); for Vd: read-out: V (volume of distribution); for AUC(0-inf) / AUC(0-t) / half-life / Cmax / Tmax: single dose; for bioavailability: read-out: F (percent oral bioavailability); for intravenous plasma clearance compared to dasatinib and compound III / intravenous volume of distribution compared to dasatinib and compound III: Sprague-Dawley rats
Experimental: Sprague-Dawley rats (approximate weight 275-300 g, N=3) were dosed intravenously at 5 mL/kg and orally at 10 mL/kg with the above dosing solutions. Blood samples were collected into tubes containing EDTA as the anticoagulant at 0, 0.25 (intravenous only), 0.5, 1, 2, 4, 8, 10, and 24 h post-dosing, and plasma samples were prepared by centrifugation. The plasma samples were mixed with 3× volumes of acetonitrile containing 100 nM reserpine as the internal standard, and centrifuged at 4000 RPM for 15 min. The supernatants were injected for LC/MS analysis which were carried out on a AB Sciex 4000 Q Trap LC/MS/MS system coupled with Shimadzu Prominence UFLCXR 20 series (including a CBM-20A controller, two LC-20ADXR solvent delivery units, SIL-20AC HT autosampler, CTO-20A column oven, and a SPD-20A UV detector). The samples were separated on a Phenomenex Columbus column (C18, 4 μm, 50×2 mm) eluted with two solvent systems: 2 mM ammonium acetate in water containing 0.1% formic acid (A) and methanol (B) at a linear gradient starting with 25% B. Electrospray ionization in positive mode was used to acquire LC/MS/MS data.

[5] = iv, 1 mg/kg, intravenous 1 mg/kg, single dose (Table 2)
[6] = iv, 1 mg/kg, intravenous 1 mg/kg, single dose (Table 3)
[7] = iv, 1 mg/kg, intravenous 1 mg/kg, plasma (Table 2)
[8] = iv, 1 mg/kg, intravenous 1 mg/kg, plasma (Table 2), read-out: t1/2 (converted)
[9] = iv, 1 mg/kg, intravenous 1 mg/kg, plasma (Table 3)
[10] = iv, 1 mg/kg, intravenous 1 mg/kg, plasma (Table 3), read-out: t½ (converted)
[11] = po, 2.5 mg/kg, PO 2.5 mg/kg, plasma (Table 2)
[12] = po, 2.5 mg/kg, PO 2.5 mg/kg, plasma (Table 2), read-out: t1/2 (converted)
[13] = po, 5 mg/kg, PO 5 mg/kg, plasma (Table 3)
[14] = po, 5 mg/kg, PO 5 mg/kg, plasma (Table 3), read-out: t½ (converted)
[15] = PO 2.5 mg/kg versus intravenous 1 mg/kg, AUCinf dose normalized (Table 2)

| Compound | microsomal CLint at 1 μM [2] [µL/min/mg] | half-life at 1 μM [2] [h] | clearance [4, 5] [mL/min/kg] | Vd [4, 5] [L/kg] | AUC(0-inf) [4, 7] [ng·h/mL] | AUC(0-t) [4, 7] [ng·h/mL] | half-life [4, 8] [h] | AUC(0-inf) [4, 11] [ng·h/mL] | AUC(0-t) [4, 11] [ng·h/mL] | half-life [4, 12] [h] | bioavailability [4, 15] [%] | Cmax ([4]; PO 2.5 mg/kg, plasma (Table 2)) [ng/mL] | Tmax ([4]; PO 2.5 mg/kg, plasma (Table 2)) [h] | metabolic stability as compared to dasatinib [2] | also measured |
| --- | --- | --- | --- | --- | --- | --- | --- | --- | --- | --- | --- | --- | --- | --- | --- |
| [2H]c1cc(C)c(NC(=O)c2cnc(Nc3cc(N4CCN(CCO)CC4)nc(C)n3)s2)c(Cl)c1 [Compound III] |  | 0.4 | 20.2 | 3 | 835 ± 114 | 835 ± 114 | 1.6 ± 0.1 | 144 ± 68 | 139 ± 69 | 4.7 ± 2.2 | 7.2 ± 4.2 | 9 ± 6 | 5.5 ± 4.3 |  | clearance [4, 6]: 18.6 mL/min/kg; Vd [4, 6]: 3 L/kg; AUC(0-inf) [4, 9]: 917 ± 161 ng·h/mL; AUC(0-t) [4, 9]: 916 ± 161 ng·h/mL; half-life [4, 10]: 1.7 ± 0.2 h; AUC(0-inf) [4, 13]: 137 ± 20 ng·h/mL; AUC(0-t) [4, 13]: 124 ± 26 ng·h/mL; half-life [4, 14]: 8.2 ± 4.1 h; bioavailability ([4]; PO 5 mg/kg versus intravenous 1 mg/kg, AUCinf dose normalized (Table 3)): 6 ± 0.9%; Cmax ([4]; PO 5 mg/kg, plasma (Table 3)): 11 ± 11 ng/mL; Tmax ([4]; PO 5 mg/kg, plasma (Table 3)): 0.5 h |
| Cc1nc(Nc2ncc(C(=O)Nc3c(C)cccc3Cl)s2)cc(N2CCCCC2)n1 [Compound VIII, N-(2-chloro-6-methylphenyl)-2-[[2-methyl-6-(piperidin-1-yl)pyrimidin-4-yl]amino]thiazole-5-carboxamide] |  |  |  |  |  |  |  |  |  |  |  |  |  | significantly greater stability |  |
| Cc1nc(Nc2ncc(C(=O)Nc3c(C)cccc3Cl)s2)cc(N2CC[C@H](N)C2)n1 [Compound XII, N-(2-chloro-6-methylphenyl)-2-[[2-methyl-6-((S)-3-aminopyrrolidin-1-yl)pyrimidin-4-yl]amino]thiazole-5-carboxamide] |  |  |  |  |  |  |  |  |  |  |  |  |  | significantly greater stability |  |
| Cc1nc(Nc2ncc(C(=O)Nc3c(C)cccc3Cl)s2)cc(N2CC[C@@H](N)C2)n1 [Compound XIII, N-(2-chloro-6-methylphenyl)-2-[[2-methyl-6-((R)-3-aminopyrrolidin-1-yl)pyrimidin-4-yl]amino]thiazole-5-carboxamide] |  |  |  |  |  |  |  |  |  |  |  |  |  | significantly greater stability |  |
| Cc1nc(Nc2ncc(C(=O)Nc3c(C)cccc3Cl)s2)cc(N2CCN(CCO)CC2)n1 [Dasatinib, reference compound] |  |  | 21.3 | 3 | 784 ± 54 | 783 ± 54 | 1.5 | 196 ± 85 | 193 ± 86 | 3.5 ± 0.5 | 9.8 ± 3.6 | 15 ± 5 | 5.5 ± 4.3 |  | clearance [4, 6]: 16.5 mL/min/kg; Vd [4, 6]: 2 L/kg; AUC(0-inf) [4, 9]: 1010 ± 68 ng·h/mL; AUC(0-t) [4, 9]: 1010 ± 68 ng·h/mL; half-life [4, 10]: 1.7 ± 0.3 h; AUC(0-inf) [4, 13]: 97 ± 22 ng·h/mL; AUC(0-t) [4, 13]: 93 ± 23 ng·h/mL; half-life [4, 14]: 5.9 ± 1.5 h; Cmax ([4]; PO 5 mg/kg, plasma (Table 3)): 7 ± 7 ng/mL; Tmax ([4]; PO 5 mg/kg, plasma (Table 3)): 0.5 h |

Second part, led by results:

| microsomal CLint at 1 μM [2] [µL/min/mg] | half-life at 1 μM [2] [h] | clearance [4, 5] [mL/min/kg] | Vd [4, 5] [L/kg] | AUC(0-inf) [4, 7] [ng·h/mL] | AUC(0-t) [4, 7] [ng·h/mL] | half-life [4, 8] [h] | AUC(0-inf) [4, 11] [ng·h/mL] | AUC(0-t) [4, 11] [ng·h/mL] | half-life [4, 12] [h] | bioavailability [4, 15] [%] | Cmax ([4]; PO 2.5 mg/kg, plasma (Table 2)) [ng/mL] | Tmax ([4]; PO 2.5 mg/kg, plasma (Table 2)) [h] | metabolic stability as compared to dasatinib [2] | Compound | also measured |
| --- | --- | --- | --- | --- | --- | --- | --- | --- | --- | --- | --- | --- | --- | --- | --- |
| 44 | 0.533 |  |  |  |  |  |  |  |  |  |  |  |  | [2H]c1cc(C)c(NC(=O)c2cnc(Nc3cc(N4CCC(O)CC4)nc(C)n3)s2)c(Cl)c1 [Compound II, N-(2-chloro-4-deuterio-6-methyl-phenyl)-2-[[6-(4-hydroxy-1-piperidyl)-2-methyl-pyrimidin-4-yl]amino]thiazole-5-carboxamide] | inhibition of RAF1 ([1]; 1 nM): < 50%; inhibition of RAF1 ([1]; 10 nM): < 50%; inhibition of RAF1 ([1]; 100 nM): < 50%; IC50 [3]: < 1 nM |
| < 24 | > 0.983 | 8.92 | 1 | 1880 ± 153 | 1880 ± 152 | 1.4 ± 0.1 | 892 ± 341 | 891 ± 341 | 2.3 ± 0.2 | 18.9 ± 6.7 | 82 ± 13 | 5.5 ± 4.3 | significantly greater stability | [2H]c1cc(C)c(NC(=O)c2cnc(Nc3cc(N4CC[C@H](O)C4)nc(C)n3)s2)c(Cl)c1 [Compound IV, N-(2-chloro-4-deutero-6-methylphenyl)-2-[[2-methyl-6-((S)-3-hydroxypyrrolidin-1-yl)pyrimidin-4-yl]amino]thiazole-5-carboxamide] | intravenous plasma clearance compared to dasatinib and compound III [4]: much lower; intravenous volume of distribution compared to dasatinib and compound III [4]: significantly lower |
| 56 | 0.417 |  |  |  |  |  |  |  |  |  |  |  |  | Cc1nc(Nc2ncc(C(=O)Nc3c(C)cccc3Cl)s2)cc(N2CCC(O)CC2)n1 [Compound IX, N-(2-chloro-6-methylphenyl)-2-[[2-methyl-6-(4-hydroxypiperidin-1-yl)pyrimidin-4-yl]amino]thiazole-5-carboxamide] |  |
| < 24 | > 0.983 | 8.57 | 1 | 1960 ± 214 | 1960 ± 214 | 1.4 ± 0.1 | 539 ± 188 | 524 ± 191 | 4.4 ± 2.8 | 11.1 ± 4.3 | 35 ± 19 | 5.5 ± 4.3 | significantly greater stability | [2H]c1cc(C)c(NC(=O)c2cnc(Nc3cc(N4CC[C@@H](O)C4)nc(C)n3)s2)c(Cl)c1 [Compound V, N-(2-chloro-4-deutero-6-methylphenyl)-2-[[2-methyl-6-((R)-3-hydroxypyrrolidin-1-yl)pyrimidin-4-yl]amino]thiazole-5-carboxamide] | intravenous plasma clearance compared to dasatinib and compound III [4]: much lower; intravenous volume of distribution compared to dasatinib and compound III [4]: significantly lower |
|  |  |  |  |  |  |  |  |  |  |  |  |  | significantly greater stability | [2H]c1cc(C)c(NC(=O)c2cnc(Nc3cc(N4CC[C@H](N)C4)nc(C)n3)s2)c(Cl)c1 [Compound VI, N-(2-chloro-4-dutero-6-methylphenyl)-2-[[2-methyl-6-((S)-3-aminopyrrolidin-1-yl)pyrimidin-4-yl]amino]thiazole-5-carboxamide] |  |
|  |  |  |  |  |  |  |  |  |  |  |  |  | significantly greater stability | [2H]c1cc(C)c(NC(=O)c2cnc(Nc3cc(N4CC[C@@H](N)C4)nc(C)n3)s2)c(Cl)c1 [Compound VII, N-(2-chloro-4-deutero-6-methylphenyl)-2-[[2-methyl-6-((R)-3-aminopyrrolidin-1-yl)pyrimidin-4-yl]amino]thiazole-5-carboxamide] |  |
